# Measured values reported in patent publication US10294207B2, “Pyrazole derivatives as TNIK, IKKϵ and TBK1 inhibitor and pharmaceutical composition comprising same” (GREEN CROSS CORPORATION, priority 2015, dated 2019).
# Legend:
# Format in all cases: biochemical
# Details in all cases: luminometer
# TBK1 = molecular target: T1, TBK1 (Homo sapiens, UniProt Q9UHD2); test: TBK1 inhibition, ADP-Glo Kinase Assay
# T1 construct: purchased Promega V3991
# T1 sequence (Q9UHD2 1-729): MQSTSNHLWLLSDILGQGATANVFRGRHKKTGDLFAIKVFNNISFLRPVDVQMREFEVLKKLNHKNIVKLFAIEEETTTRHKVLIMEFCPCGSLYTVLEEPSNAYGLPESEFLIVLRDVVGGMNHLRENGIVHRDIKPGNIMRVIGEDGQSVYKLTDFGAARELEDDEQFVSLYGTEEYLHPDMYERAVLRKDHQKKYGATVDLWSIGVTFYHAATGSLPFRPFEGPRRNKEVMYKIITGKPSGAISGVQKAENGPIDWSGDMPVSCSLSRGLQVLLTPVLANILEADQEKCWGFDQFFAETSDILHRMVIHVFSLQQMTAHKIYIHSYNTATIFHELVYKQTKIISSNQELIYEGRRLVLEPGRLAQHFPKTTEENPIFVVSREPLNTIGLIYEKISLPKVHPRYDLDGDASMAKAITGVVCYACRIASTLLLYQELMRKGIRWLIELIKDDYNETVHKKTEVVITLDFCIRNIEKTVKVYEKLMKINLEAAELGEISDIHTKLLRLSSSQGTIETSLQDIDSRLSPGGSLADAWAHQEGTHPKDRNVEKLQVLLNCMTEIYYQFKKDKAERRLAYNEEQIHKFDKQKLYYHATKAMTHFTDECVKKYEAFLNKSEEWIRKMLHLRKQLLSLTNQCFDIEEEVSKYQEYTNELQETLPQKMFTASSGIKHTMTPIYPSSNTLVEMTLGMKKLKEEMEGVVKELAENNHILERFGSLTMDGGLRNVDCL
# Outline: (§1)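 ADP-Glo luminescence reported ADP produced by each kinase, following the kit protocol. Reactions used commercial kinase enzyme systems in buffer of 40 mM Tris (pH 7.5), 20 mM MgCl2 and 0.1 mg/mL BSA.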
# IKKε = molecular target: T2, IKKε (Homo sapiens, UniProt Q14164); test: IKKε inhibition, ADP-Glo Kinase Assay
# T2 construct: purchased Invitrogen PR8031B
# T2 sequence (Q14164 1-716): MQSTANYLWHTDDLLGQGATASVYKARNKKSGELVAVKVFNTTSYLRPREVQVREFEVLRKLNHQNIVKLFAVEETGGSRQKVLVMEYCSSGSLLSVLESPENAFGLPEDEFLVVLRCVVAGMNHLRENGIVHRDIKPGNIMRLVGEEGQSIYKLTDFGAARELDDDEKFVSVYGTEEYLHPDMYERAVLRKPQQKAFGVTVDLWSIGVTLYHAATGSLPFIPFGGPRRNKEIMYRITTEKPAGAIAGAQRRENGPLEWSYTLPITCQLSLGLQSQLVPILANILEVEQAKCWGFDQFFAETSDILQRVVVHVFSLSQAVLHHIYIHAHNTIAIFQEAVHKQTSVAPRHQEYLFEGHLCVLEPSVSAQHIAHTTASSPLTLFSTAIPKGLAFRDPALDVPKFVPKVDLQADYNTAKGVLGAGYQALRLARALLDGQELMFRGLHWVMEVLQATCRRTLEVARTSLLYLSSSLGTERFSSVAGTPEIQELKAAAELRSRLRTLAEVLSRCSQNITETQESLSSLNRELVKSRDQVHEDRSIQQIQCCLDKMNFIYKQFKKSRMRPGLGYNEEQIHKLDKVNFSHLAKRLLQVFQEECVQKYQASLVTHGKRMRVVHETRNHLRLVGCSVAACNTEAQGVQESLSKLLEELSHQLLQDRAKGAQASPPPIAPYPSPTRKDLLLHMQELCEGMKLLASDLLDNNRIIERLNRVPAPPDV
# Outline: as §1
# TNIK = molecular target: T3, TNIK (Homo sapiens, UniProt Q9UKE5); test: TNIK inhibition, ADP-Glo Kinase Assay
# T3 construct: purchased Promega V4158
# Method: Inhibition activities on TNIK, IKKε and TBK1 were evaluated using the compounds of Examples 1 to 254.
# The inhibition activities on TNIK, IKKε and TBK1 were measured by a luminometer, TNIK/IKKε/TBK1 Kinase Enzyme System (Promega, Ca# V4158; Invitrogen, PR8031B, Promega, Ca# V3991) and ADP-Glo Kinase Assay using ADP-Glo™ Kinase Analysis Kit (Promega, Ca# V9101) and a kinase reaction buffer [40 mM Tris(pH 7.5), 20 mM MgCl2, 0.1 mg/mL BSA] in accordance with the manufacturer's protocol.
# T3 sequence (Q9UKE5 1-367 limits assumed): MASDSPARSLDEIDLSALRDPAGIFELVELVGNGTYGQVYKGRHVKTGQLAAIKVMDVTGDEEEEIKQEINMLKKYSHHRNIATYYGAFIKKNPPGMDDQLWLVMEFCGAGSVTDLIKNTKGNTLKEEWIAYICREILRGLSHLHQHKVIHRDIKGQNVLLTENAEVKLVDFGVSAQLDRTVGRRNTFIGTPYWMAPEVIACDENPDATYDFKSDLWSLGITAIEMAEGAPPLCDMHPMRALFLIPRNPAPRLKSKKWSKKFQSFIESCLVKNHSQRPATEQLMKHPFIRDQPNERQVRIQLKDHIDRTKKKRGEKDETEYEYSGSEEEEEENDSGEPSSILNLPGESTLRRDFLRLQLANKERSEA
SMILES,IC50 (TBK1) [µM],IC50 (IKKε) [µM],IC50 (TNIK) [µM],"TNIK (μM), inhibition activity (TNIK)"
"CN1CCN(c2ccc(C(=O)Nc3n[nH]c4ccc(C(=O)NCc5ccc(F)cc5)cc34)cc2)CC1 [Example 189, N-(4-Fluorobenzyl)-3-(4-(4-methylpiperazin-1-yl)benzamido)-1H-indazole-5-carboxamide]",0.019,0.13,,
"CC[C@H](NC(=O)c1ccc2[nH]nc(NC(=O)c3ccc(N4CCN(C)CC4)cc3)c2c1)c1ccccc1 [Example 190, (S)-3-(4-(4-Methylpiperazin-1-yl)benzamido)-N-(1-phenylpropyl)-1H-indazole-5-carboxamide]",0.34,1.23,,
"CCC[C@H](NC(=O)c1ccc2[nH]nc(NC(=O)c3ccc(N4CCN(C)CC4)cc3)c2c1)c1ccccc1 [Example 193, (S)-3-(4-(4-Methylpiperazin-1-yl)benzamido)-N-(1-phenylbutyl)-1H-indazole-5-carboxamide]",0.8,4.47,,
"CCC[C@@H](NC(=O)c1ccc2[nH]nc(NC(=O)c3ccc(N4CCN(C)CC4)cc3)c2c1)c1ccccc1 [Example 194, (R)-3-(4-(4-Methylpiperazin-1-yl)benzamido)-N-(1-phenylbutyl)-1H-indazole-5-carboxamide]",0.0075,0.038,,
"CN1CCN(c2ccc(C(=O)Nc3n[nH]c4ccc(C(=O)NC(c5ccccc5)C5CC5)cc34)cc2)CC1 (centres unmarked) [Example 197, N-(Cyclopropyl(phenyl)methyl)-3-(4-(4-methylpiperazin-1-yl)benzamido)-1H-indazole-5-carboxamide]",0.027,0.042,,
"CC(C)(C)OC(=O)N1CC=C(c2ccc(C(=O)Nc3n[nH]c4ccc(C(=O)NCc5cccs5)cc34)cc2)CC1 [Example 198, tert-Butyl 4-(4-((5-((thiophen-2-ylmethyl)carbamoyl)-1H-indazol-3-yl)carbamoyl)phenyl)-3,6-tetrahydropyridine-1(2H)-carboxylate]",0.15,1.28,,
"O=C(NCc1cccs1)c1ccc2[nH]nc(NC(=O)c3ccc(C4=CCNCC4)cc3)c2c1 [Example 199, 3-(4-(1,2,3,6-Tetrahydropyridin-4-yl)benzamido)-N-(thiophen-2-ylmethyl)-1H-indazole-5-carboxamide]",0.0097,0.14,,
"O=C(NCc1cccs1)c1ccc2[nH]nc(NC(=O)c3ccc(-n4ccnc4)cc3)c2c1 [Example 212, 3-(4-(1H-Imidazol-1-yl)benzamido)-N-(thiophen-2-ylmethyl)-1H-indazole-5-carboxamide]",0.078,0.36,,
"CC(NC(=O)c1ccc2[nH]nc(NC(=O)c3ccc(F)cc3)c2c1)c1ccncc1 (centres unmarked) [Example 214, 3-(4-Fluorobenzamido)-N-(1-(pyridin-4-yl)ethyl)-1H-indazole-5-carboxamide]",0.27,0.59,,
"CC(C)(NC(=O)c1ccc2[nH]nc(NC(=O)c3ccc(F)cc3)c2c1)c1cccs1 [Example 215, 3-(4-Fluorobenzamido)-N-(2-(thiophen-2-yl)propan-2-yl)-1H-indazole-5-carboxamide]",0.021,0.32,,
"O=C(Nc1n[nH]c2ccc(C(=O)NC3(c4ccccn4)CC3)cc12)c1ccc(F)cc1 [Example 216, 3-(4-Fluorobenzamido)-N-(1-(pyridin-2-yl)cyclopropyl)-1H-indazole-5-carboxamide]",3.7,5.25,,
"O=C(Nc1n[nH]c2ccc(C(=O)NC3(c4cccnc4)CC3)cc12)c1ccc(F)cc1 [Example 217, 3-(4-Fluorobenzamido)-N-(1-(pyridin-3-yl)cyclopropyl)-1H-indazole-5-carboxamide]",0.52,0.65,,
"Cc1cnc(-c2cc3[nH]nc(NC(=O)c4ccc(N5CCOCC5)cc4)c3s2)o1 [Example 218, N-(5-(5-methyloxazol-2-yl)-1H-thieno[3,2-c]pyrazol-3-yl)-4-morpholinobenzamide]",,,0.048,
"COC(=O)c1cc2[nH]nc(-c3ccc(N(C)C)cc3)c2s1 [Example 234, methyl 3-(4-(dimethylamino)phenyl)-1H-thieno[3,2-c]pyrazole-5-carboxylate]",,,,insoluble
"CCNC(=O)c1cc2[nH]nc(-c3ccc(N(C)C)cc3)c2s1 [Example 237, 3-(4-(dimethylamino)phenyl)-N-ethyl-1H-thieno[3,2-c]pyrazole-5-carboxamide]",,,1.79,
"CCNC(=O)c1cc2[nH]nc(-c3ccccc3)c2s1 [Example 238, N-ethyl-3-phenyl-1H-thieno[3,2-c]pyrazole-5-carboxamide]",,,3.47,
"CCc1cnc(-c2cc3[nH]nc(-c4ccc(N5CCOCC5)cc4)c3s2)o1 [Example 244, 4-(4-(5-(5-ethyloxazol-2-yl)-1H-thieno[3,2-c]pyrazol-3-yl)phenyl)morpholine]",,,1.01,

# More lines, in order of falling IC50 (TBK1), values ahead:
IC50 (TBK1) [µM],IC50 (IKKε) [µM],IC50 (TNIK) [µM],"TNIK (μM), inhibition activity (TNIK)",SMILES
0.0072,0.05,,,"CN1CCN(c2ccc(C(=O)Nc3n[nH]c4ccc(C(=O)NCc5cccc(F)c5)cc34)cc2)CC1 [Example 195, N-(3-Fluorobenzyl)-3-(4-(4-methylpiperazin-1-yl)benzamido)-1H-indazole-5-carboxamide]"
0.007,0.032,,,"CN1CCN(c2ccc(C(=O)Nc3n[nH]c4ccc(C(=O)NCc5ccccc5F)cc34)cc2)CC1 [Example 196, N-(2-Fluorobenzyl)-3-(4-(4-methylpiperazin-1-yl)benzamido)-1H-indazole-5-carboxamide]"
0.0044,0.069,,,CN1CCC(Nc2ccc(C(=O)Nc3n[nH]c4ccc(C(=O)NCc5cccs5)cc34)cc2)CC1 [Example 213]
0.0035,0.018,,,"CCC(NC(=O)c1ccc2[nH]nc(NC(=O)c3ccc(N4CCN(C)CC4)cc3)c2c1)c1ccccc1 (centres unmarked) [Example 187, 3-(4-(4-Methylpiperazin-1-yl)benzamido)-N-(1-phenylpropyl)-1H-indazole-5-carboxamide]"
0.0032,0.017,,,"CCC(NC(=O)c1ccc2[nH]nc(NC(=O)c3ccc(N4CCOCC4)cc3)c2c1)c1ccccc1 (centres unmarked) [Example 188, 3-(4-Morpholinobenzamido)-N-(1-phenylpropyl)-1H-indazole-5-carboxamide]"
0.003,0.038,,,"O=C(NCc1cccs1)c1ccc2[nH]nc(NC(=O)c3ccc(OCCN4CCOCC4)cc3)c2c1 [Example 201, 3-(4-(2-Morpholinoethoxy)benzamido)-N-(thiophen-2-ylmethyl)-1H-indazole-5-carboxamide]"
0.0029,0.015,,,"CCC(NC(=O)c1ccc2[nH]nc(NC(=O)c3ccc(N4CCN(C(C)=O)CC4)cc3)c2c1)c1ccsc1 (centres unmarked) [Example 209, 3-(4-(4-Acetylpiperazin-1-yl)benzamido)-N-(1-(thiophen-3-yl)propyl)-1H-indazole-5-carboxamide]"
0.0013,0.014,,,"CC[C@@H](NC(=O)c1ccc2[nH]nc(NC(=O)c3ccc(N4CCN(C)CC4)cc3)c2c1)c1ccccc1 [Example 191, (R)-3-(4-(4-Methylpiperazin-1-yl)benzamido)-N-(1-phenylpropyl)-1H-indazole-5-carboxamide]"
0.0013,0.079,,,"CC(=O)Nc1ccc(C(=O)Nc2n[nH]c3ccc(C(=O)NCc4cccs4)cc23)cc1 [Example 211, 3-(4-Acetamidobenzamido)-N-(thiophen-2-ylmethyl)-1H-indazole-5-carboxamide]"
